# Legend:
# [1] = tested on: human ES cell-derived myocardial clusters
# Excerpt: They were received in raw and recovered using a glass capillary (Vitrolife), cultured in a medium plus 20% inactivated FBS, 1% non-essential amino acids, 1% penicillin-streptomycin, and 0.2% β-mercaptoethanol in DMEM (all purchased from Invitrogen).
# Collected clusters were then placed in a multi-electrode tip (Alfa Med Scientific). The day on which they were placed was set to Day 0. Clusters for which a 1st peak of an extracellular potential (FP) of 200 mV or more was acquired on Day 3 was used for data acquisition. A multi-electrode membrane potential measurement system (Nikkyo Technos Corp.) was used to acquire data.
# Pre-agent application data (called ‘Before’) was acquired for 10 minutes before agent application. The agent was dissolved in deionized distilled water (DDW) or DMSO, and diluted in PBS before its application. […] Extracellular potential duration (FPD) and STV (short term variability) of the FPD was calculated from the acquired data.
# A steep downward peak of the FP corresponds to the inflow of Na^+. A gradual upward peak corresponds to the outflow of K^+. The FPD was defined as the time between the Na^+ and K^+ peaks. In addition, the STV of the FPD was evaluated as the variation between beats of FPD. STV was calculated by the following equation.
# [formula] The increase in the variation between the FPDs can be evaluated as an increase in the value of STV. […]
# [2] = both in vivo and in vitro; cited from earlier work
"position in two-dimensional plot (X: FPD score, FPD extended by 10% or more; Y: STV score, STV increased by 100% or more) [1]",SMILES,known effect on APD and STV [2]
upper left corner,COc1ccc([C@@H]2Sc3ccccc3N(CCN(C)C)C(=O)[C@@H]2OC(C)=O)cc1 [Diltiazem],–
upper right corner,CC(C)NCC(O)c1ccc(NS(C)(=O)=O)cc1 (racemic) [DL-sotalol],increase the APD and STV

# — patent US9447447B2, “Method and apparatus for testing cardiotoxicity and evaluating cardiomyocytes” (National University Corporation Tokyo Medical and Dental …, priority 2010, dated 2016)
